Results published in US20100016335A1, “NOVEL AMINOPYRIDINE DERIVATIVES HAVING AURORA A SELECTIVE INHIBITORY ACTION” (priority 2006, published 2010).
pIC50: −log10 of the molar value. Structures can show the parent of a compound that is named as a salt.

Columns and labels:
[1] = target: T1, GST-tagged human Aurora B(AurB)/His-tagged human INCENP complex proteins (Homo sapiens, UniProt Q96GD4); assay: Aurora B inhibitory activity (Method A, IMAP assay kit); format: biochemical; conditions: 40 μM ATP, 25° C., 45 minutes
T1 construct: GST; purchased Carna Biosciences, Inc
Description: An assay development kit for IMAP (registered trademark) (Aurora B), purchased from Carna Biosciences, Inc., was used for phosphorylation reaction, and the phosphorylation of a substrate was detected using the IMAP technology. […] Using the same, the phosphorylation reaction was conducted in accordance with a partially revised protocol attached to the kit, and then the phosphorylation of the substrate was detected using the IMAP technology.
For the phosphorylation reaction, 384 well plate was used, and the reaction volume was 10 μl/well. The composition of the reaction buffer (assay buffer) is comprised of 20 mM of HEPES buffer (pH 7.4), 0.01% Tween-20, and 2 mM of dithiothreitol (DTT). Thereto, AurB/INCENP complex protein, 100 nM of the substrate, and 40 μM of ATP, and 1 mM of magnesium salt were added, and then the reaction was conducted at 25° C. for 45 minutes. Thereafter, in order to terminate and detect the reaction, 30 μl of the IMAP (registered trademark) binding reagent (IMAP Progressive Binding Reagent, R7284) that had been diluted (1:400) in the 1× IMAP binding buffer A (IMAP Progressive Binding Buffer A, 5× stock, R7282) was added to each well.
(§1) The compound to be tested was added to the reaction system such that a dilution series of the compound in DMSO was prepared, and then 0.5 μL of this solution was added for the testing to each well. Each control well was provided by adding 0.5 μL of DMSO to the well in place of the DMSO solution containing the compound to be tested.

human Aurora A = target: T2, human Aurora A (Homo sapiens, UniProt O14965); assay: Aurora A inhibitory activity (IMAP fluorescence polarization phosphorylation assay); format: biochemical; conditions: 20 μM ATP, 30° C., 120 minutes
T2 construct: His (N); made in house; host or cells: Escherichia coli BL21-CodonPlus(DE3)-RIL
T2 sequence (O14965 1-403): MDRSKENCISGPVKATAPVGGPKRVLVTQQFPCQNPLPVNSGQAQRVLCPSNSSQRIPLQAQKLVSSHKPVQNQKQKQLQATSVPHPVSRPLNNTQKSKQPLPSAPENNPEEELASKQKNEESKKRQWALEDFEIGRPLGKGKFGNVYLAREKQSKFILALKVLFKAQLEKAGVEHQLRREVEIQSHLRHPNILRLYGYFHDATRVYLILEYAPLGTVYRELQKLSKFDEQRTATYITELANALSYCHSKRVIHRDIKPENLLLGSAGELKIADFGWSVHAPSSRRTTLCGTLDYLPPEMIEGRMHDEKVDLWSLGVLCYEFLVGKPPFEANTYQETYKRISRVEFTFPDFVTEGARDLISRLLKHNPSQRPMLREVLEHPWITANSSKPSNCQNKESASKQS
Description: cDNA of N-terminal His-tagged human Aurora A was integrated into an expression vector, which was then highly expressed in Escherichia coli BL21-CodonPlus(DE3)-RIL cells. The Escherichia coli was harvested and lysed, and then the His-tagged human Aurora A protein was applied onto a nickel chelate column and eluted from the column with imidazole. The active fractions were desalted with a desalting column to give a purified enzyme.
For the phosphorylation reaction, the method by Upstate, Inc. [Kinase Profiler™ Assay Protocols] was referred to, and phosphorylation of the substrate was detected using IMAP® technology (Molecular Devices, Co. Ltd.) (Gaudet E W. et. al, J. Biomol. Screen, 8, 164-175 (2003)). Concretely, the phosphorylation reaction and the detection were carried out as follows:
The phosphorylation reaction was conducted using 384 well plate, and the reaction volume was 10 μl/well. The reaction buffer is comprised of 50 mM Tris-chloride buffer (pH 7.4), 15 mM magnesium acetate, and 0.2 mM ethylenediamine-N,N,N′,N′-tetraacetic acid (EDTA). Thereto, the purified Aurora A protein, 100 nM of the peptide substrate, and 20 μM of adenosine 5′-triphosphate (ATP) were added, and then the reaction was carried out at 30° C. for 120 minutes.
Thereafter, in order to terminate and detect the reaction, 30 μl of the IMAP (registered trademark) binding reagent (IMAP Progressive Binding Reagent, R7284) that had been diluted (1:400) in the 1×IMAP binding buffer A (IMAP Progressive Binding Buffer A, 5× stock, R7282) was added to each well. The solution stood still for 60 minutes in the dark, and then fluorescence polarization was measured using a high-end microplate reader (excitation wavelength: 485 nm; emission wavelength: 520 nm).
as §1, with “in dimethylsulfoxide (DMSO)” for “in DMSO”

[2] = test system: Human cervical cancer cells (HeLa S3); assay: Cell growth inhibitory effect, WST-8 method; format: cell-based; conditions: Homo sapiens, 72 h; HeLa S3, three days incubation; read-out: Cell growth inhibitory effect (HeLaS3) (IC50)
Description: Fetal calf serum (FCS) was purchased from Moregate Biotech, and DMEM medium was purchased from Invitrogen Corp. WST-8 was purchased from Kishida Chemical Co., Ltd.
(§2) Human cervical cancer cells (HeLa S3) were obtained from the American Type Culture Collection (ATCC).
Cells were suspended in a DMEM medium containing 10% FCS, and the cell suspension was dispensed to a 96-well plastic plate at a rate of 750 cells/100 microliters per well. The plate was incubated overnight in 5% CO2-95% air at 37° C. A drug was subjected to graded dilution in dimethylsulfoxide and further diluted with a DMEM medium containing 10% FCS. Then, the dilution was dispensed to the plate on which cells had been disseminated in advance, at a rate of 100 microliters per well. The plate was incubated for further three days in 5% CO2-95% air at 37° C. Cell growth after incubation was measured by the WST-8 method (H. Tominaga, et al., Anal. Commun., 36, 47-50 (1999)). Here, the WST-8 method refers to a method in which 20 microliters of a WST-8 reagent solution is added to each well, incubation is conducted at 37° C. for 60 minutes, the plate is stirred, and the amount of formazan produced is measured by a […] method to determine the inhibitory rate of the drug.

[3] = test system: Human cervical cancer cells (HeLa S3); assay: Effect by combined use of drugs in cells (docetaxel), WST-8 method; format: cell-based; conditions: HeLa S3, three days; for inhibition at 0.1 µM: compound 0.1 μM alone; for inhibition at 0.3 µM: compound 0.3 μM alone; for inhibition at 1 µM: compound 1.0 μM alone
Description: Fetal calf serum (FCS) was purchased from Moregate Biotech, DMEM medium from Invitrogen Corp., docetaxel (tradename: Taxere) from Sigma-Aldrich, Inc., and WST-8 from Kishida Chemical Co., Ltd.
as §2
Cells were suspended in a DMEM medium containing 10% FCS, and the cell suspension was dispensed to two 96-well plastic plates at a rate of 750 cells/100 microliters per well. The plates were incubated overnight in 5% CO2-95% air at 37° C. A drug was subjected to graded dilution in dimethylsulfoxide and further diluted with DMSO or with a DMEM medium containing 10% FCS and also containing 0.6 nM docetaxel. Then, the dilutions were each dispensed to one of the plates on which cells had been disseminated in advance, at a rate of 100 microliters per well. The final concentration of docetaxel at this stage was 0.3 nM. Also, the concentrations in the case of sole administration of the compound according to the invention were 0.003, 0.01, 0.03, 0.1, 0.3, 1, 3 and 10 μM. The plates were incubated for further three days in 5% CO2-95% air at 37° C. Cell growth after incubation was measured by the WST-8 method (H. Tominaga, et al., Anal. Commun., 36, 47-50 (1999)). Here, the WST-8 method refers to a method in which 20 microliters of a WST-8 reagent solution is added to each well, incubation is conducted at 37° C. for 60 minutes, the plate is stirred, and the amount of formazan produced is measured by a colorimetric method to determine the inhibitory rate of the drug. The growth inhibitory effects of docetaxel and of the compound according to the invention were determined, with the value obtained in sole treatment of DMSO being defined as 0%.

[4] = Homo sapiens, HeLa S3, 72 h, read-out: Cell growth inhibitory effect by sole administration of the compound of Example (%)
[5] = compound 0.1 μM + docetaxel 0.3 nM
[6] = compound 0.3 μM + docetaxel 0.3 nM
[7] = compound 1.0 μM + docetaxel 0.3 nM

T1 sequence (Q96GD4 whole entry): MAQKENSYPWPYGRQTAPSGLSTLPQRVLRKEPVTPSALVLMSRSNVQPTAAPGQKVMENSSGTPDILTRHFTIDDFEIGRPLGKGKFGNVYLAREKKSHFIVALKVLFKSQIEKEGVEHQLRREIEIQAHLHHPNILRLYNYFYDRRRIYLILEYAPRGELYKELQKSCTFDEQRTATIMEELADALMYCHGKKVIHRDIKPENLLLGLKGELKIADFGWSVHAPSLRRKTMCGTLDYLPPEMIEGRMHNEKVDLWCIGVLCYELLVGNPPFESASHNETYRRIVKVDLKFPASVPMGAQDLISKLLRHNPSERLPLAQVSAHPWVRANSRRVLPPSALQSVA
T1 sequence (Q9NQS7 803-916 partner limits assumed): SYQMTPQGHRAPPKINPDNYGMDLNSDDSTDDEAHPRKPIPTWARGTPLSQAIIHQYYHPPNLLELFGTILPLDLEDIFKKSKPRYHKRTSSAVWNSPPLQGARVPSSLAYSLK

Structure (SMILES) | pIC50 [1] | pIC50 (human Aurora A) | pIC50 [2] | inhibition at 0.1 µM [3, 4] | inhibition at 0.3 µM [3, 4] | Cell growth inhibitory effect by combined administration of docetaxel and the compound of Example (%) [3, 5] | Cell growth inhibitory effect by combined administration of docetaxel and the compound of Example (%) [3, 6] | inhibition at 1 µM [3, 4] | Cell growth inhibitory effect by combined administration of docetaxel and the compound of Example (%) [3, 7] | inhibition at 3 µM ([3]; Homo sapiens, HeLa S3, 72 h, compound 3.0 μM alone, read-out: Cell growth inhibitory effect by sole administration of the compound of Example (%)) | Cell growth inhibitory effect by combined administration of docetaxel and the compound of Example (%) ([3]; compound 3.0 μM + docetaxel 0.3 nM)
O=C(O)[C@]1(Cc2cccc(Nc3cc[nH]n3)n2)CC[C@@H](Sc2cccc(Cl)c2Cl)CC1 [Example 33, trans-4-((2,3-dichlorophenyl)thio)-1-((6-(1H-pyrazol-3-ylamino)pyridin-2-yl)methyl)cyclohexanecarboxylic acid trifluoroacetate] | 6.68 | 9.89 | 5.65 |  | 0.3% |  | 75.5% | 23.4% | 91.3% |  | 
O=C(O)[C@]1(Cc2cccc(Nc3nccs3)n2)CC[C@@H](S(=O)(=O)c2cccc(Cl)c2Cl)CC1 [Example 32, trans-4-((2,3-dichlorophenyl)sulfonyl)-1-((6-(1,3-thiazol-2-ylamino)pyridin-2-yl)methyl)cyclohexanecarboxylic acid trifluoroacetate] | 7.15 | 9.82 | 6.23 | 6.3% | 40.8% | 88.6% | 94.0% |  |  |  | 
Cl.O=C(O)[C@]1(Cc2cccc(Nc3nccs3)n2)CC[C@@H](Oc2cccc(C(F)(F)F)c2F)CC1 [Example 4, trans-4-(2-fluoro-3-(trifluoromethyl)phenoxy)-1-((6-(1,3-thiazol-2-ylamino)pyridin-2-yl)methyl)cyclohexanecarboxylic acid hydrochloride] | 7.49 | 9.96 | 6.08 |  | 22.9% |  | 88.6% | 52.9% | 93.8% |  | 

Continued by rising pIC50 [1], values first:

pIC50 [1] | pIC50 (human Aurora A) | pIC50 [2] | Structure (SMILES) | inhibition at 0.1 µM [3, 4] | inhibition at 0.3 µM [3, 4] | Cell growth inhibitory effect by combined administration of docetaxel and the compound of Example (%) [3, 5] | Cell growth inhibitory effect by combined administration of docetaxel and the compound of Example (%) [3, 6] | inhibition at 1 µM [3, 4] | Cell growth inhibitory effect by combined administration of docetaxel and the compound of Example (%) [3, 7] | inhibition at 3 µM ([3]; Homo sapiens, HeLa S3, 72 h, compound 3.0 μM alone, read-out: Cell growth inhibitory effect by sole administration of the compound of Example (%)) | Cell growth inhibitory effect by combined administration of docetaxel and the compound of Example (%) ([3]; compound 3.0 μM + docetaxel 0.3 nM)
6.16 | 9.33 | 6.06 | O=c1[nH]nc([C@]2(Cc3cccc(Nc4cc[nH]n4)n3)CC[C@@H](Sc3cccc(Cl)c3Cl)CC2)o1 [Example 34, 5-(trans-4-((2,3-dichlorophenyl)thio)-1-((6-(1H-pyrazol-3-ylamino)pyridin-2-yl)methyl)cyclohexyl)-1,3,4-oxadiazol-2(3H)-one trifluoroacetate] | 3.9% | 40.8% | 83.8% | 93.9% |  |  |  | 
6.70 | 9.31 | 6.05 | CONC(=O)[C@]1(Cc2cccc(Nc3nccs3)n2)CC[C@@H](Oc2cccc(Cl)c2F)CC1 [Example 18, trans-4-(3-chloro-2-fluorophenoxy)-N-methoxy-1-((6-(1,3-thiazol-2-ylamino)pyridin-2-yl)methyl)cyclohexanecarboxamide] | 7.4% | 21.3% | 61.5% | 77.4% |  |  |  | 
6.89 | 9.92 | 5.94 | Fc1c(Cl)cccc1O[C@H]1CC[C@](Cc2cccc(Nc3cc[nH]n3)n2)(c2n[nH]c(=S)o2)CC1 [Example 24, 5-(trans-4-(3-chloro-2-fluorophenoxy)-1-((6-(1H-pyrazol-3-ylamino)pyridin-2-yl)methyl)cyclohexyl)-1,3,4-oxadiazole-2(3H)-thione] | 0.5% | 25.4% | 72.8% | 87.8% |  |  |  | 
7.28 | 9.72 | 5.23 | O=C(O)[C@]1(Cc2cccc(Nc3nccs3)n2)CC[C@@H]([S+]([O-])c2cccc(Cl)c2Cl)CC1 (stereo partly drawn) [Example 31, trans-4-((2,3-dichlorophenyl)sulfinyl)-1-((6-(1,3-thiazol-2-ylamino)pyridin-2-yl)methyl)cyclohexanecarboxylic acid trifluoroacetate] |  |  |  |  | 1% | 75.1% | 38.5% | 89.0%
